Consider eleven compounds from ChEMBL document CHEMBL5291721, “A preclinical secondary pharmacology resource illuminates target-adverse drug reaction associations of marketed drugs” (Nat Commun, 2023).

Experiment [1] addresses Melanocortin receptor 3 (Homo sapiens, UniProt P41968).
The target of experiment [2] is T1, Cholecystokinin receptor type A (Homo sapiens, UniProt P32238).
T1 sequence (P32238 whole entry): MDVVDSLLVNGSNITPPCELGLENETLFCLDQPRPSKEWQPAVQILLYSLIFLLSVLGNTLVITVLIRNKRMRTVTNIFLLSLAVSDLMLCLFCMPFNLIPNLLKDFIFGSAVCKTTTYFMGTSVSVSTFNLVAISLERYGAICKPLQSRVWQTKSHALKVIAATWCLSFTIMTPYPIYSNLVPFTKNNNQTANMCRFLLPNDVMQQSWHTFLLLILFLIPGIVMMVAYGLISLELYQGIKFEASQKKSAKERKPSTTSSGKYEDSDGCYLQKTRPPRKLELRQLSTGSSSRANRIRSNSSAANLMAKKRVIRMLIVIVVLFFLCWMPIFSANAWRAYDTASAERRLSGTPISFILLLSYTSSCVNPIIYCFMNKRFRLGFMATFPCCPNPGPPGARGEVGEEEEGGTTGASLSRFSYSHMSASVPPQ

Experiment [3] has as its target T2, Adenosine receptor A1 (Homo sapiens, UniProt P30542).
T2 sequence (P30542 whole entry): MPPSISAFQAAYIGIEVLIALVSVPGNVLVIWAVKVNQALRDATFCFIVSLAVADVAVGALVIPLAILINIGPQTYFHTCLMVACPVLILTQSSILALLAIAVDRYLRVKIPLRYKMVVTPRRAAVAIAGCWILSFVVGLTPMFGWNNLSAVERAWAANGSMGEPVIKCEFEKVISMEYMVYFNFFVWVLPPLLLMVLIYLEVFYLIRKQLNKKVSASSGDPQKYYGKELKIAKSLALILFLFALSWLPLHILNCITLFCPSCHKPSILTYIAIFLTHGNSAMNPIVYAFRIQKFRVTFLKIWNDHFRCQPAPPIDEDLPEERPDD

In experiment [4] the target is T3, Type-1 angiotensin II receptor (Homo sapiens, UniProt P30556).
T3 sequence (P30556 whole entry): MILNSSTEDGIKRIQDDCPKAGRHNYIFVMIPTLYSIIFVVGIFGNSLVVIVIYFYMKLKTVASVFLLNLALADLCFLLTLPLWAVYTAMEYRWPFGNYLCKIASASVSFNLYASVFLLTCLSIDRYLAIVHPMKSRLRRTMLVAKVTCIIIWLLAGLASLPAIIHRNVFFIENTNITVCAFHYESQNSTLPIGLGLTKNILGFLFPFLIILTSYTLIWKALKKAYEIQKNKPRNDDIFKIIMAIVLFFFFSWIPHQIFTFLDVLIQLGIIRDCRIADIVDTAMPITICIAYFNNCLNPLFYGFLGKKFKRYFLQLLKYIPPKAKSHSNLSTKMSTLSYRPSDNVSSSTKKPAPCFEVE

For experiment [5], the target named is cGMP-inhibited 3',5'-cyclic phosphodiesterase 3A (Homo sapiens, UniProt Q14432). The class given is functional.
Sequence of cGMP-inhibited 3',5'-cyclic phosphodiesterase 3A (Q14432 whole entry): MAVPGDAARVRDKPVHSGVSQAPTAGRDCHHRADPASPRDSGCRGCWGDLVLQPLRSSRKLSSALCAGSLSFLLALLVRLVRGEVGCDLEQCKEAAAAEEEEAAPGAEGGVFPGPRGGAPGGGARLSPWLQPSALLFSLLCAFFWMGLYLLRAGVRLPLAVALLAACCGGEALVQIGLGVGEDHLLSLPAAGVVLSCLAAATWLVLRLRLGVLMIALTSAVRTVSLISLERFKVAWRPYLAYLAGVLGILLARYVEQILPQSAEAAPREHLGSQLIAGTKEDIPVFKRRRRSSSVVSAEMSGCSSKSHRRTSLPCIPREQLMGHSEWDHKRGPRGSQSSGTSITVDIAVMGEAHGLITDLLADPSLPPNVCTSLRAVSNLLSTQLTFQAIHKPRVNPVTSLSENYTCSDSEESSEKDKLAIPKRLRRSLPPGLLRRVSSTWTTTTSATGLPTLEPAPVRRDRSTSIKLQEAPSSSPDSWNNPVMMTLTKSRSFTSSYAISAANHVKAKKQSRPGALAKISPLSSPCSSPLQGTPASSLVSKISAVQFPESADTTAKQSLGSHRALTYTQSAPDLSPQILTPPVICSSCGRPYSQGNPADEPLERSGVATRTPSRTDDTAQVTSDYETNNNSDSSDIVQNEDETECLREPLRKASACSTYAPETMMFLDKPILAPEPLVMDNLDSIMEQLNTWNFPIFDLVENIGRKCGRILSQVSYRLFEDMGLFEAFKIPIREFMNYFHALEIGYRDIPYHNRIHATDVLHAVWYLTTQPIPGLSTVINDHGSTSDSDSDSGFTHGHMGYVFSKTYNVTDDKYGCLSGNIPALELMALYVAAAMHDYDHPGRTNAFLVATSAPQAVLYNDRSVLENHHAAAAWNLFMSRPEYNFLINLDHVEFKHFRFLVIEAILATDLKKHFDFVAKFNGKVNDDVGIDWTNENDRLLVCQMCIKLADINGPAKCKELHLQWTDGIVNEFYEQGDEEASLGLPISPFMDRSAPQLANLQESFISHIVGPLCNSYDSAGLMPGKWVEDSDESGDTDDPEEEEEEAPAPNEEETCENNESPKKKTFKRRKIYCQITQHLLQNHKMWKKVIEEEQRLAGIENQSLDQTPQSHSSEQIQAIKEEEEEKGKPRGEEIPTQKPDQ
The target of experiment [6] is Gamma-aminobutyric acid receptor subunit alpha-1 (Rattus norvegicus, UniProt P62813).
Sequence of Gamma-aminobutyric acid receptor subunit alpha-1 (P62813 whole entry): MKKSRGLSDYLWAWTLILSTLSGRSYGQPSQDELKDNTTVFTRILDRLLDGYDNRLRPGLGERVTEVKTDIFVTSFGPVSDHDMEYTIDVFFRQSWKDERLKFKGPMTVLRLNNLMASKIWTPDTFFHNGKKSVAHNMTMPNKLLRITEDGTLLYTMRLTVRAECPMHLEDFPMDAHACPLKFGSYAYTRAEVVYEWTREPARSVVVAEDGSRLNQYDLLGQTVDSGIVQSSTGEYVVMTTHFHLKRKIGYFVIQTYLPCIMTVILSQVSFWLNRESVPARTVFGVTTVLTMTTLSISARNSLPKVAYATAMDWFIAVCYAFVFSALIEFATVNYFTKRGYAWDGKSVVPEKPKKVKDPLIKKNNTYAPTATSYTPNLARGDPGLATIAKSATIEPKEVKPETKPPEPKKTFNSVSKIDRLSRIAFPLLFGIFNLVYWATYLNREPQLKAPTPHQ
Experiment [7] has as its target Neuronal acetylcholine receptor subunit alpha-4 (Homo sapiens, UniProt P43681).
For experiment [8], the target named is T4, Adenosine receptor A3 (Homo sapiens, UniProt P0DMS8).
T4 sequence (P0DMS8 whole entry): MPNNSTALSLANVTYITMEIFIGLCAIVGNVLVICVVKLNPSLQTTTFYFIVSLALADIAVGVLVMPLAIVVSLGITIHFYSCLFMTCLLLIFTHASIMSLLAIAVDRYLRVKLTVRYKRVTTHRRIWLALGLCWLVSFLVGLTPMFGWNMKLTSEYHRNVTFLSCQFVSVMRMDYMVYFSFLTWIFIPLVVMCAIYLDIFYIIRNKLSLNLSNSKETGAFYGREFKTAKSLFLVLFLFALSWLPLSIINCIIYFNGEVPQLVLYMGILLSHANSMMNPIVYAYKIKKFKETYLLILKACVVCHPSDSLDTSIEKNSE

For experiment [9], the target named is 3',5'-cyclic-AMP phosphodiesterase 4D (Homo sapiens, UniProt Q08499). The class given is functional.
Sequence of 3',5'-cyclic-AMP phosphodiesterase 4D (Q08499 whole entry): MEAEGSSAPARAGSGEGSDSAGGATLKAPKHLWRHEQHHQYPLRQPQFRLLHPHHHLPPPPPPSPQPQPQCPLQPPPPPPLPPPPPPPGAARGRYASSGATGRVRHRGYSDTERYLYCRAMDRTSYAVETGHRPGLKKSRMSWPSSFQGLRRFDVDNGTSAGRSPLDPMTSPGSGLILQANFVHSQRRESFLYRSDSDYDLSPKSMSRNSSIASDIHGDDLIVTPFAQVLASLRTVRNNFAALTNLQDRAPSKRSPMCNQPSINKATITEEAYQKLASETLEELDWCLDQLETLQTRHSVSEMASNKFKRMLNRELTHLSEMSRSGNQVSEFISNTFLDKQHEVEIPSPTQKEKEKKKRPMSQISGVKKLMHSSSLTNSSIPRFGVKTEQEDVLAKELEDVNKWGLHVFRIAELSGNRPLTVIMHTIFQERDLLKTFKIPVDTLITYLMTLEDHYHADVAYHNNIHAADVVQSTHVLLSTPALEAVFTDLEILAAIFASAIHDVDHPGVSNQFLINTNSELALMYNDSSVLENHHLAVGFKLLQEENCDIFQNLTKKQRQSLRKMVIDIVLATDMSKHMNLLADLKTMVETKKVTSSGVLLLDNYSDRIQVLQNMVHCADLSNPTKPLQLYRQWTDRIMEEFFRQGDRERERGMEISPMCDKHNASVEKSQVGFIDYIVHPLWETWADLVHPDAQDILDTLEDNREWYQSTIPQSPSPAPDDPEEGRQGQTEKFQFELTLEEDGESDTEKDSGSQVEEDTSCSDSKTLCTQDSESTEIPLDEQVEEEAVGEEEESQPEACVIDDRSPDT
Experiment [10] deals with T5, Equilibrative nucleoside transporter 1 (Homo sapiens, UniProt Q99808).
T5 sequence (Q99808 whole entry): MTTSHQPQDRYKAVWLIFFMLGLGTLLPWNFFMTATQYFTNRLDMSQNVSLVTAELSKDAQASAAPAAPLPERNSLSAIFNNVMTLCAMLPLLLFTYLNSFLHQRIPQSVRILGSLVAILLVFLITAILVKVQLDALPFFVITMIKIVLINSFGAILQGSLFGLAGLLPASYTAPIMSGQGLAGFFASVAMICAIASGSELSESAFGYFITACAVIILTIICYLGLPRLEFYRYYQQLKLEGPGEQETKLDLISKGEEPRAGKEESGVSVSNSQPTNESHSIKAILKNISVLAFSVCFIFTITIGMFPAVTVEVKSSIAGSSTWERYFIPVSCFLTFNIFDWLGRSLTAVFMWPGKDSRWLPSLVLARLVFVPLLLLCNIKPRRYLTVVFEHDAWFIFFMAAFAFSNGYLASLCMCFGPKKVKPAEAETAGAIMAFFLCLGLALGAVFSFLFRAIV

In experiment [11] the target is Motilin receptor (Homo sapiens, UniProt O43193).
Sequence of Motilin receptor (O43193 whole entry): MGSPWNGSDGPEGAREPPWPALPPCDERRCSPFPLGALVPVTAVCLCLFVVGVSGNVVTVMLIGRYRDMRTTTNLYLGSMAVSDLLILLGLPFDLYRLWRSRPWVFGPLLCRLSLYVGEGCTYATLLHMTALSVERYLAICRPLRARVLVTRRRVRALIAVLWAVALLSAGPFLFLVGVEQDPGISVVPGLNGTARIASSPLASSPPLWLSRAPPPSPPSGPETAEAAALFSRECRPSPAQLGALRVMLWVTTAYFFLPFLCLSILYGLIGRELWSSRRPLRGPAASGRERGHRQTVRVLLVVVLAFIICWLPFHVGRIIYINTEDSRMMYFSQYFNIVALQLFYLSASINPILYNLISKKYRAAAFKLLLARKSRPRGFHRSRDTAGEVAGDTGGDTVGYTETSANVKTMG
The target of experiment [12] is Adenosine receptor A2a (Homo sapiens, UniProt P29274).
Sequence of Adenosine receptor A2a (P29274 whole entry): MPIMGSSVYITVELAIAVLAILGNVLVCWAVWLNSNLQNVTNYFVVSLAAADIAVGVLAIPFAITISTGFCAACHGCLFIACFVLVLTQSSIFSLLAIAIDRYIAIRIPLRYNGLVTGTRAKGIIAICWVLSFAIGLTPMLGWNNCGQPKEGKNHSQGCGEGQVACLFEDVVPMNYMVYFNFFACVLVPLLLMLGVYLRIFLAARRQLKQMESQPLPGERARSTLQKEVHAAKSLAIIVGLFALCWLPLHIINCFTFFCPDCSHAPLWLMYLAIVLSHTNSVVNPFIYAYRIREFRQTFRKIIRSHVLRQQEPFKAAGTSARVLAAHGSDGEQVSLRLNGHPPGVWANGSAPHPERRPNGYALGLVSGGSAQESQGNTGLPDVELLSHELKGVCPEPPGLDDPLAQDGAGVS

Values joined by “and” are separate entries in the source; they are usually repeats but may differ in a detail not shown here. Equal values may be shown once. Bounds are passed on as bounds.
Also: assay procedure not described here.

Sequence of Melanocortin receptor 3 (P41968 whole entry): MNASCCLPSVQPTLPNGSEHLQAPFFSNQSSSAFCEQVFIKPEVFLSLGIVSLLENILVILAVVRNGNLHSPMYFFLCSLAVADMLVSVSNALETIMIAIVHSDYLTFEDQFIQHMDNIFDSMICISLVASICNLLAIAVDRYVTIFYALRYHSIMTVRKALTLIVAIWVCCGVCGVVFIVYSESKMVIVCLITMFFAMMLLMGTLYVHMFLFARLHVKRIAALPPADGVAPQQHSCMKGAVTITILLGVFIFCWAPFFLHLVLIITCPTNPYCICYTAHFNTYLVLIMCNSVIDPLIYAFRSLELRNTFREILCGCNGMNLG
Sequence of Neuronal acetylcholine receptor subunit alpha-4 (P43681 whole entry): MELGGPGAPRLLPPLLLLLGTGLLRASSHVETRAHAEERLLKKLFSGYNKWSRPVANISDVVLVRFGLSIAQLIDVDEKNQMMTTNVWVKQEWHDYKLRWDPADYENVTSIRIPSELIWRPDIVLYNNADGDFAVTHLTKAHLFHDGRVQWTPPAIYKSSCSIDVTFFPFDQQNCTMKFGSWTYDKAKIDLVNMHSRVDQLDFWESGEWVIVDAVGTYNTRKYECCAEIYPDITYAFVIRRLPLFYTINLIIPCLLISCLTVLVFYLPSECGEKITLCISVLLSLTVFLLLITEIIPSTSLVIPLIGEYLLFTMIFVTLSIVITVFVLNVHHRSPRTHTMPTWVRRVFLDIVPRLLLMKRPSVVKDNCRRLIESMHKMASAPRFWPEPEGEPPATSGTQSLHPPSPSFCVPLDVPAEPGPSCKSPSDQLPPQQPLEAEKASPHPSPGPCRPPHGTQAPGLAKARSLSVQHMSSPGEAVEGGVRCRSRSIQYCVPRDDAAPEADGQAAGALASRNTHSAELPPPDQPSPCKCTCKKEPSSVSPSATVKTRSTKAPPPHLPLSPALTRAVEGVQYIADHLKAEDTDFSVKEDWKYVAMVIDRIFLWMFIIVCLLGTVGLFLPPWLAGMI

As for `CCC(=O)O[C@]1(C(=O)SCF)[C@H](C)C[C@H]2[C@@H]3C[C@H](F)C4=CC(=O)C=C[C@]4(C)[C@@]3(F)[C@@H](O)C[C@@]21C` [FLUTICASONE PROPIONATE], the AC50 in experiment [1], in [2], in experiment [3], in experiment [4], in experiment [5] and in experiment [6] was greater than 30 µM each time. Moreover, the AC50 in [7], in experiment [8], in experiment [9], in experiment [10], in experiment [11] and in experiment [12] was greater than 30 µM throughout.
Turning to `C[C@]12CCC(=O)C(O)=C1CC[C@@H]1[C@@H]2CC[C@]2(C)C(=O)CC[C@@H]12` [FORMESTANE], the half-maximal activity concentration (AC50) in [1], in experiment [2], in experiment [3], in experiment [4], in experiment [5] and in experiment [6] was greater than 30 µM each time. Also, the concentration at half-maximal activity (AC50) in experiment [7], in [8], in experiment [9], in experiment [10], in experiment [11] and in [12] was greater than 30 µM each time.
Consider `C[C@]12CC[C@@H]3c4ccc(O)cc4C[C@@H](CCCCCCCCC[S+]([O-])CCCC(F)(F)C(F)(F)F)[C@H]3[C@@H]1CC[C@@H]2O` (some centres not stated) [FULVESTRANT], for which the AC50 in [1], in experiment [2], in experiment [3], in experiment [4], in [5] and in [6] was greater than 30 µM each time. Moreover, the AC50 in [7], in [8], in [9], in experiment [10], in experiment [11] and in experiment [12] was greater than 30 µM throughout.
Take `CCC1(c2ccccc2)CCC(=O)NC1=O` (configuration not stated) [GLUTETHIMIDE]: the AC50 (usually the concentration at which the activity in the assay is half-maximal) was greater than 10 µM in experiment [1]; greater than 10 µM in experiment [2]; greater than 10 µM in [3]; greater than 10 µM in experiment [4]; greater than 30 µM in [5]; greater than 10 µM in experiment [6]. In addition, the AC50 in experiment [7] is greater than 10 µM; in experiment [8], greater than 10 µM; in experiment [9] it was greater than 30 µM; in experiment [10], greater than 10 µM; in experiment [11], greater than 10 µM; in experiment [12], greater than 10 µM.
For `CC(C)NCC(O)c1ccc(O)c(O)c1` (configuration not stated) [ISOPROTERENOL], the AC50 was greater than 30 µM in [1]; greater than 30 µM in [2]; greater than 30 µM in experiment [3]; greater than 30 µM in experiment [4]; 18 µM in experiment [5]; greater than 10 µM in experiment [6]. For the same compound, the concentration at half-maximal activity (AC50) in experiment [7] is greater than 30 µM; in experiment [8] it was 20.3 µM; in experiment [9] it was greater than 30 µM; in experiment [10], greater than 30 µM; in experiment [11], greater than 10 µM; in experiment [12] it was greater than 30 µM.
As to `Oc1ccc2c(c1)CC[C@H](c1ccccc1)[C@@H]2c1ccc(OCCN2CCCC2)cc1` [LASOFOXIFENE], the half-maximal activity concentration (AC50) is 11 µM in experiment [1]; greater than 3 µM in experiment [2]; greater than 30 µM in experiment [3]; greater than 30 µM in experiment [4]; greater than 30 µM in experiment [5]; greater than 30 µM in experiment [6]. Moreover, the AC50 in experiment [7] was greater than 30 µM; in experiment [8], 5.8 µM; in experiment [9], 15 µM; in [10], greater than 30 µM; in experiment [11], 2.9 µM; in [12], greater than 30 µM.
With `CC(C(=O)O)c1ccc(CC2CCCC2=O)cc1` (configuration not stated) [LOXOPROFEN], the AC50 in experiment [1], in experiment [2], in experiment [3], in experiment [4], in [5] and in experiment [6] was greater than 30 µM each time. Moreover, the AC50 in [7], in [8], in [9], in [10], in experiment [11] and in experiment [12] was greater than 30 µM throughout.
In the case of `C[C@H](Cc1ccc(O)c(O)c1)[C@@H](C)Cc1ccc(O)c(O)c1` [MASOPROCOL], the concentration at half-maximal activity (AC50) in experiment [1] was greater than 30 µM; in [2], greater than 10 µM; in experiment [3] it was greater than 30 µM; in experiment [4], greater than 10 µM; in experiment [5] it was 12 µM and 23 µM and 19 µM; in experiment [6], greater than 10 µM. The AC50 in experiment [7] was greater than 30 µM; in experiment [8], 5.4 µM and 4.7 µM and 4.1 µM; in [9], 4.2 µM and 2.8 µM and 3.1 µM; in [10] it was greater than 30 µM; in experiment [11] it was greater than 10 µM; in experiment [12] it was greater than 30 µM.
With `OC1(c2ccc(Cl)cc2)c2ccccc2C2=NCCN21` (configuration not stated) [MAZINDOL], the AC50 in experiment [1], in experiment [2], in experiment [3], in experiment [4], in experiment [5] and in experiment [6] was greater than 30 µM throughout. For the same compound, the AC50 in experiment [7] was greater than 30 µM; in experiment [8], 9.6 µM; in experiment [9] it was greater than 30 µM; in [10], greater than 30 µM; in experiment [11], greater than 30 µM; in experiment [12], greater than 30 µM.
Regarding `CC12CC3CC(C)(C1)CC(N)(C3)C2` [MEMANTINE], the concentration at half-maximal activity (AC50) is greater than 30 µM in [1]; greater than 30 µM in [2]; greater than 30 µM in experiment [3]; greater than 30 µM in [4]; greater than 30 µM in [5]; greater than 10 µM in experiment [6]. Also, the concentration at half-maximal activity (AC50) in experiment [7] is greater than 10 µM; in experiment [8] it was greater than 30 µM; in [9], greater than 30 µM; in experiment [10] it was greater than 30 µM; in experiment [11], greater than 10 µM; in experiment [12] it was greater than 30 µM.
`CCOC(=O)C1=C(C)NC(C)=C(C(=O)OC)C1c1cccc([N+](=O)[O-])c1` (configuration not stated) [NITRENDIPINE]: the AC50 in [1] was greater than 30 µM; in experiment [2], greater than 30 µM; in experiment [3] it was greater than 30 µM; in [4], greater than 30 µM; in experiment [5], greater than 30 µM; in experiment [6] it was greater than 10 µM. Moreover, the half-maximal activity concentration (AC50) is greater than 10 µM in [7]; greater than 30 µM in experiment [8]; greater than 30 µM in [9]; 15.9 µM in experiment [10]; greater than 10 µM in [11]; greater than 30 µM in [12].
